Reference: the supplement of paper PMC12463676, “Small-molecule dissolution of stress granules by redox modulation benefits ALS models” (Nature Chemical Biology, 2025)

How the values were obtained:
potassium arsenate = compound: O=[As]([O-])(O)O.[K+] [potassium arsenate]; assay: thermal stability z-score vs DMSO; higher = more thermally stabilized by treatment; settings: HeLa; arsenate concentration 1 mM
Experimental: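 Cellular thermal proteome profiling in HeLa cells treated with 1 mM arsenate for 1 h (DMSO pretreatment), heated to ten temperatures (37-66.3 °C). Soluble protein was quantified by TMT mass spectrometry relative to DMSO controls; the thermal stability score was transformed to a z-score; mean of n = 3 experiments.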

lipoamide = compound: NC(=O)CCCCC1CCSS1 [lipoamide]; assay: as above; settings: HeLa, lipoamide concentration 100 µM
Experimental: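 Cellular thermal proteome profiling in HeLa cells. Cells were treated with 100 µM lipoamide for 1 h, with or without 1 mM arsenate for a further 1 h, then heated to ten temperatures (37-66.3 °C), and soluble protein was quantified by TMT mass spectrometry relative to 0.1% DMSO controls. The thermal stability score (sum of log2 fold changes minus the abundance score) was transformed to a z-score; mean of n = 3 experiments.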

[1] = arsenate co-treatment: 1 mM arsenate 1 h
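Note: each temperature applied for 3 min, abundance score taken as mean log2 fold change at the two lowest temperatures, z-score obtained by mean subtraction and division by SD.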

Sequence of UniProt Q30201 (Q30201 whole entry): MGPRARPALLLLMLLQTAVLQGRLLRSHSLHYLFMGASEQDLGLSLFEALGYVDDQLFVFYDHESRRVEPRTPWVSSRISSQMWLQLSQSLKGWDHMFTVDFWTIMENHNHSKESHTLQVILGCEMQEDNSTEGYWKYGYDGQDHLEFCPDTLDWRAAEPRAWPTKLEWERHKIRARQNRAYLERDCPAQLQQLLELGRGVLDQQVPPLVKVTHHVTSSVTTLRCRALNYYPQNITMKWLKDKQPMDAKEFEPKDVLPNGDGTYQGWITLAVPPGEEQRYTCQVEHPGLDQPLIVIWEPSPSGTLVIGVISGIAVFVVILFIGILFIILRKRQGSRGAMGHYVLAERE
Sequence of UniProt P47895 (P47895 whole entry): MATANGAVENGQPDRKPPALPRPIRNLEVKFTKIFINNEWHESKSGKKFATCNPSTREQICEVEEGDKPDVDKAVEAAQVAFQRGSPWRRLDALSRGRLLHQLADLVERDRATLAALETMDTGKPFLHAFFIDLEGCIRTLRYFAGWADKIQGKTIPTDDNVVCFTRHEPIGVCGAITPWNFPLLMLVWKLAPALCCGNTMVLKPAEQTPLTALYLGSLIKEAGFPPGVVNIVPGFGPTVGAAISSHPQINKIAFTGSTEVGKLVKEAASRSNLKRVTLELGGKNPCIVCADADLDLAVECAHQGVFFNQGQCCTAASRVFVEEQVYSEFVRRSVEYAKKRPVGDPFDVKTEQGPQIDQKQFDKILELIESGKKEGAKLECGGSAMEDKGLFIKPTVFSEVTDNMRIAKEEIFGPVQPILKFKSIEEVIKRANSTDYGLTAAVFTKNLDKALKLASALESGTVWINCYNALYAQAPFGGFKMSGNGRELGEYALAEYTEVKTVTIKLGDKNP
Sequence of UniProt Q15126 (Q15126 whole entry): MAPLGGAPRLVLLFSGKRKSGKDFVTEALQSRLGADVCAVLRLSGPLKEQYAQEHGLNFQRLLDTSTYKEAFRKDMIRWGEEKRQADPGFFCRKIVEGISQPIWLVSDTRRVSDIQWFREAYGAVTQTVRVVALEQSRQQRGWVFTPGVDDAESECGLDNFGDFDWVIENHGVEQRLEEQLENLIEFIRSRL
Sequence of UniProt P82909 (P82909 whole entry): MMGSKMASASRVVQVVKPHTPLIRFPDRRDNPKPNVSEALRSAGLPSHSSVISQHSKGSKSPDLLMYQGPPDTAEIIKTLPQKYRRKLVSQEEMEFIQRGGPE
Sequence of UniProt P60983 (P60983 whole entry): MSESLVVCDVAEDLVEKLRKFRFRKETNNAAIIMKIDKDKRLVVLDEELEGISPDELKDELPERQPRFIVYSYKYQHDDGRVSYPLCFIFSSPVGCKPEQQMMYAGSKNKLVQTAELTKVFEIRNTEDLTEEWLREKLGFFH
Sequence of UniProt Q8IWR0 (Q8IWR0 whole entry): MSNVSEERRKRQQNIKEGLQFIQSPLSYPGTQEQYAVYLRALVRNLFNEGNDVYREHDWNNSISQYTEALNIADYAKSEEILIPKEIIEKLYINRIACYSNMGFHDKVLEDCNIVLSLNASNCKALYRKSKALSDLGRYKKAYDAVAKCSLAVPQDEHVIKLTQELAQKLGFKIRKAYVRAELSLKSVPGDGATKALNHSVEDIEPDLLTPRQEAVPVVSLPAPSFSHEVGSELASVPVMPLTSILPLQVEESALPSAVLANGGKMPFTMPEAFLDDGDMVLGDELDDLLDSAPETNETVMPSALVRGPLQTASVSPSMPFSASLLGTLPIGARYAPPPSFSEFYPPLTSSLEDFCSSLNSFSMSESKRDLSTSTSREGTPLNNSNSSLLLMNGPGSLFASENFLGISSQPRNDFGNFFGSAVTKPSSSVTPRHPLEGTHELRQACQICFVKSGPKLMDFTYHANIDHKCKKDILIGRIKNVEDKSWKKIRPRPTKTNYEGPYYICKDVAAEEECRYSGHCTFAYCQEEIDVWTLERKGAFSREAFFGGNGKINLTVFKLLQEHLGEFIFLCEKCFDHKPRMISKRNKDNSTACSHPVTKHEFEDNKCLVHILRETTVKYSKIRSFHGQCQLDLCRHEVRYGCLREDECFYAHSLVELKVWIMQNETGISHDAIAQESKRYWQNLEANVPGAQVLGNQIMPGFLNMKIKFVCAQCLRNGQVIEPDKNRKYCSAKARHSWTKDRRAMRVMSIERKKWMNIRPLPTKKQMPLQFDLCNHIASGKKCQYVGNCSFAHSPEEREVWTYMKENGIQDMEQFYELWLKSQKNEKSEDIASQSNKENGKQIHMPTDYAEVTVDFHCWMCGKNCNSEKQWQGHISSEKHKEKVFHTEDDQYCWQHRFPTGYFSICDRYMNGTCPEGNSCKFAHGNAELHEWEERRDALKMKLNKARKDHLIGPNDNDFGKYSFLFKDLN
Sequence of UniProt P56134 (P56134 whole entry): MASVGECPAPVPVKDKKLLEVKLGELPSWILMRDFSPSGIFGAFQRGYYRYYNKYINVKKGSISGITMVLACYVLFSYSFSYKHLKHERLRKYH
Sequence of UniProt Q9BZC7 (Q9BZC7 whole entry): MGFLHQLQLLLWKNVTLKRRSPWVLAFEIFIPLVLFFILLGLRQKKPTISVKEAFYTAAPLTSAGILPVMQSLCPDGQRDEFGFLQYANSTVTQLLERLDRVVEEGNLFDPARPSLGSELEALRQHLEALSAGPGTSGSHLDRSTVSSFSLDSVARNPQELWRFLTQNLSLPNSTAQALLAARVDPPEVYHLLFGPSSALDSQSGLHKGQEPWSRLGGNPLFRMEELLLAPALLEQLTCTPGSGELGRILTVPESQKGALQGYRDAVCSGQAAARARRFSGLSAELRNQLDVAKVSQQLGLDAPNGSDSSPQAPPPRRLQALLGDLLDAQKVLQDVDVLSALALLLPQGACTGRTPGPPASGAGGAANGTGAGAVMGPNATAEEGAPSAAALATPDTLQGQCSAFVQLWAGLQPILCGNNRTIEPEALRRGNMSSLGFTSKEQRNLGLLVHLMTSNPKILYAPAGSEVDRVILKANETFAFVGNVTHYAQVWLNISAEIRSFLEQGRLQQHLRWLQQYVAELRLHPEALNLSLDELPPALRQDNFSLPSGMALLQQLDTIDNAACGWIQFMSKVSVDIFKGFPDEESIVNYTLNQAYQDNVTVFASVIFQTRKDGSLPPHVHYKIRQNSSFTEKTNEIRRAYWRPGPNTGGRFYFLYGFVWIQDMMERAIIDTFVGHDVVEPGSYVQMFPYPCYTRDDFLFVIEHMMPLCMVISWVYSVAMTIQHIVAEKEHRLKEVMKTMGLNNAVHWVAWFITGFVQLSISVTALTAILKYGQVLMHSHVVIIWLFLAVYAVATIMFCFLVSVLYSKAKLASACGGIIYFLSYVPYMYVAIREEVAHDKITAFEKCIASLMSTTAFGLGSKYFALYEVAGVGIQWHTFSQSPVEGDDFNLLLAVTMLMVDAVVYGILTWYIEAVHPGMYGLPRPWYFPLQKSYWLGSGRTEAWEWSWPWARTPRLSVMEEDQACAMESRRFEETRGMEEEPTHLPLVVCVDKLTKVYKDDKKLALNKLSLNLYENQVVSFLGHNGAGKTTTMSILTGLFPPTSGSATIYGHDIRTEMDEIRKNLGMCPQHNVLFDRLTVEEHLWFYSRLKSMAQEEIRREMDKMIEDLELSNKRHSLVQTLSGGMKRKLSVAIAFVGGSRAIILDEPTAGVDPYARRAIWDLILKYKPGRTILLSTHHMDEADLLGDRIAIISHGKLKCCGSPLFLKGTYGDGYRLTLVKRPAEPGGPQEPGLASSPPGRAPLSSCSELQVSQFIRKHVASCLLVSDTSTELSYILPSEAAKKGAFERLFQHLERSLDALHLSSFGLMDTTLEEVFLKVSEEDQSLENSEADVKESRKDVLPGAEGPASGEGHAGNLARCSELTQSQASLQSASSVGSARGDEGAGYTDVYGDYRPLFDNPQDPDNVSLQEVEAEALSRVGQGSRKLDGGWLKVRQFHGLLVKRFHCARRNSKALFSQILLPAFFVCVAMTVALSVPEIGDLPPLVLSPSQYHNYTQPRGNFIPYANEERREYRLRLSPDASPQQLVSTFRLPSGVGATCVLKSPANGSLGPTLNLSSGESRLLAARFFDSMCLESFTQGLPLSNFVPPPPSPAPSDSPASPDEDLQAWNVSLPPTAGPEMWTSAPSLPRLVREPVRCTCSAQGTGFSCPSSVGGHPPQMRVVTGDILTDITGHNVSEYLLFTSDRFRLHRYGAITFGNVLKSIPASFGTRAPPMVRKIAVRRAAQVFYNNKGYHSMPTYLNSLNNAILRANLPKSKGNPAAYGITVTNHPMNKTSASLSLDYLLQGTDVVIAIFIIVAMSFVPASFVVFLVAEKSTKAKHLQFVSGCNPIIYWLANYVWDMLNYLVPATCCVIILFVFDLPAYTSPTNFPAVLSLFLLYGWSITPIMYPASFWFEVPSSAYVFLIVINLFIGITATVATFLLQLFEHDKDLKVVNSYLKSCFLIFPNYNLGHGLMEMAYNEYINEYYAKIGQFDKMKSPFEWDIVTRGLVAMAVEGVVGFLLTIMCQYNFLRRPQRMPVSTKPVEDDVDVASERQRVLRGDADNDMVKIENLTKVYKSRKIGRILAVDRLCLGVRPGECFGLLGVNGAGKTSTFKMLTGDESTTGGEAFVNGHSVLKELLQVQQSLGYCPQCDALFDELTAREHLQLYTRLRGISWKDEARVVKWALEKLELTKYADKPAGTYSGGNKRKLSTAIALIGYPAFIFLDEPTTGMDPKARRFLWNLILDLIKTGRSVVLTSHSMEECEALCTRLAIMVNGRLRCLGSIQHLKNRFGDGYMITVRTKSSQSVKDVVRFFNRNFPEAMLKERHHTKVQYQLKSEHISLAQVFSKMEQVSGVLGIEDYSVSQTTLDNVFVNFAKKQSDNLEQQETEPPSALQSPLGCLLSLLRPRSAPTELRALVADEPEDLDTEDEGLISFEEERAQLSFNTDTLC
Sequence of UniProt Q9NRV9 (Q9NRV9 whole entry): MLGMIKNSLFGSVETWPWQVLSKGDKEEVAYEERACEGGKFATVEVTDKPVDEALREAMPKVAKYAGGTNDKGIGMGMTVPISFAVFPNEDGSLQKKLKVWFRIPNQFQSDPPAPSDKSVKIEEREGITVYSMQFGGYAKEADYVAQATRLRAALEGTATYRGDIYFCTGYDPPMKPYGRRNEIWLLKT

Row | Target | thermal stability z-score (potassium arsenate) | thermal stability z-score (lipoamide; [1]) | thermal stability z-score (lipoamide; arsenate co-treatment: none)
1 | DHRS3 (UniProt O75911) | -0.762 | -0.614 | -0.616
2 | AEBP2 (UniProt Q6ZN18) | -0.00304 | -0.0576 | -0.195
3 | CTNNA1 (UniProt P35221) | -0.4 | 0.319 | 0.2
4 | ABCA2 (UniProt Q9BZC7) | -0.0916 | 0.0542 | 0.0722
5 | MELK (UniProt Q14680) | -0.32 | -0.0697 | -0.0146
6 | MTOR (UniProt P42345) | 0.0121 | 0.00431 | 0.137
7 | PMVK (UniProt Q15126) | 0.0469 | -0.641 | 0.0911
8 | RETSAT (UniProt Q6NUM9) | -0.259 | 0.0873 | 0.172
9 | ADCY9 (UniProt O60503) | 0.26 | 0.368 | 0.853
10 | PCYT1A (UniProt P49585) | 1.78 | 0.0432 | 0.294
11 | RSU1 (UniProt Q15404) | -1.38 | -0.465 | -0.369
12 | NSDHL (UniProt Q15738) | -0.401 | 0.566 | 0.0586
13 | STOM (UniProt P27105) | 0.0471 | -0.123 | 0.354
14 | CEP78 (UniProt Q5JTW2) | -0.165 | -0.104 | -0.0338
15 | ABCG2 (UniProt Q9UNQ0) | 1.12 | 0.0159 | -0.208
16 | ACADS (UniProt P16219) | -2.93 | 0.116 | -1.16
17 | ESYT1 (UniProt Q9BSJ8) | 0.595 | -0.86 | -0.642
18 | SUCLG1 (UniProt P53597) | 0.206 | 0.0617 | 0.192
19 | KPNA3 (UniProt O00505) | -0.288 | -1.01 | -0.146
20 | DNAAF5 (UniProt Q86Y56) | 0.875 | -0.979 | 0.336
21 | B4GALT5 (UniProt O43286) | -0.0207 | -0.000852 | -0.338
22 | BACE2 (UniProt Q9Y5Z0) | 1.09 | -0.766 | -0.974
23 | ZC3H7A (UniProt Q8IWR0) | -0.613 | -0.124 | -0.0131
24 | HEBP1 (UniProt Q9NRV9) | -0.000791 | 0.436 | 0.615
25 | GMFB (UniProt P60983) | -0.675 | 0.0996 | 0.368
26 | DYNLT3 (UniProt P51808) | -0.596 | 0.487 | -0.208
27 | MORF4L2 (UniProt Q15014) | -0.58 | -0.451 | -0.148
28 | HDHD2 (UniProt Q9H0R4) | -0.185 | 0.338 | 0.00313

Row | Target | thermal stability z-score (potassium arsenate) | thermal stability z-score (lipoamide; [1]) | thermal stability z-score (lipoamide; arsenate co-treatment: none)
29 | PTTG1IP (UniProt P53801) | -0.2 | -0.059 | -0.0338
30 | AGO1 (UniProt Q9UL18) | -0.337 | -0.0919 | -0.396
31 | TPI1 (UniProt P60174) | -0.48 | 0.408 | 0.0882
32 | OSBPL5 (UniProt Q9H0X9) | -0.386 | -0.28 | -0.534
33 | CAPG (UniProt P40121) | -0.915 | 0.598 | 0.158
34 | ATP7A (UniProt Q04656) | -0.674 | -0.29 | -0.175
35 | ATG3 (UniProt Q9NT62) | -0.627 | 0.381 | 0.021
36 | MTMR14 (UniProt Q8NCE2) | -0.829 | -1.39 | -0.656
37 | ATP5J2 (UniProt P56134) | -0.0845 | 0.46 | 0.37
38 | ARPC4 (UniProt P59998) | 0.369 | 1.12 | 0.913
39 | TMEM55B (UniProt Q86T03) | 0.592 | 0.572 | 0.963
40 | ZYX (UniProt Q15942) | -0.00636 | 0.568 | 0.672
41 | TRAPPC2L (UniProt Q9UL33) | -0.119 | -0.426 | 0.338
42 | RPL14 (UniProt P50914) | -1.08 | 0.565 | 0.492
43 | MINK1 (UniProt Q8N4C8) | -0.0337 | -0.526 | 0.0558
44 | MRPS36 (UniProt P82909) | 0.55 | 0.32 | 0.0105
45 | NDUFB6 (UniProt O95139) | 0.873 | 0.071 | 0.306
46 | ALDH1A3 (UniProt P47895) | -0.284 | 0.622 | 0.25
47 | CCNH (UniProt P51946) | 0.325 | -0.00877 | 0.0852
48 | TIPRL (UniProt O75663) | 0.122 | -0.215 | -0.0559
49 | MBP (UniProt P02686) | 0.222 | 1.96 | 0.197
50 | CNOT4 (UniProt O95628) | 0.494 | -0.171 | -0.00856
51 | CLPX (UniProt O76031) | 0.139 | -0.306 | -0.172
52 | HFE (UniProt Q30201) | 0.0645 | -0.0165 | 0.389
53 | NUP133 (UniProt Q8WUM0) | -0.139 | -0.312 | -0.456
54 | PTGS2 (UniProt P35354) | 0.269 | -0.361 | 0.261
55 | VTI1A (UniProt Q96AJ9) | -0.0839 | 0.054 | 0.419
